Experiments:
DLD-1 BRCA2 (−/−) cells = assay: CellTiter-Glo DLD-1 BRCA2 (−/−) cell assay for PARP1/2 inhibition; type: cell-based; conditions: 6 days, read-out: DLD-1 BRCA2 (−/−) CTG EC50
Method in brief: (§1)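 DLD-1 parent (500 cells/well) and DLD-1 BRCA2 (−/−) (1200 cells/well) cells in RPMI 1640 with 10% FBS exposed to compounds at 30 μM to 0.5 nM (3-fold dilutions) for 6 days at 37° C. Viability read by CellTiter-Glo luminescence on day 7.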

TIPARP GST-(TEV) = TIPARP GST-(TEV) (Homo sapiens (Human), UniProt Q7Z3E1); assay: TR-FRET binding assay, TIPARP; conditions: for IC50: TR-FRET, Probe 1, 2 hours incubation; for PARP1/TIPARP IC50 Ratio: ratio of PARP1 GST IC50 to TIPARP GST-(TEV) IC50
Method in brief: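 N-terminal GST-TEV-tagged human TIPARP with protein/probe mix in 50 mM Tris-HCl pH 8.0, 5 mM MgCl2, 5 µM ZnCl2, 1 mM DTT, 0.15% BSA, 0.01% Triton X-100, plus 1 nM Tb-anti-GST antibody. Compounds at 30 µM to 0.5 nM final, 3-fold steps. TR-FRET ratio read after 2 h at ambient temperature.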

PARP1 GST = PARP1 GST (Homo sapiens (Human), UniProt P09874); assay: TR-FRET binding assay, PARP1; conditions: Probe 2, 2 hours incubation
Method in brief: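 Serially diluted compounds, final 30 μM down to 0.5 nM, incubated 2 h at ambient temperature with GST-tagged protein/probe mix plus 1 nM Tb-anti-GST antibody. Buffer: 50 mM Tris-HCl pH 8.0, 5 mM MgCl2, 5 μM ZnCl2, 1 mM DTT, 0.15% BSA, 0.01% Triton X-100. Binding read as TR-FRET ratio.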

DLD-1 parent cells = assay: CellTiter-Glo DLD-1 parent cell assay; type: cell-based; conditions: 6 days, read-out: DLD-1 CTG EC50
Method in brief: as §1

NCI-H1373 cells = assay: NCI-H1373 CellTiter-Glo cell assay for TIPARP inhibition; type: cell-based, human; conditions: 6 days, 100 nM 10-Cl-BBQ in medium; read-out: NCI-H1373 CTG EC50
Method in brief: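 NCI-H1373 cells (1000/well) grown in RPMI 1640 with 10% FBS and 100 nM 10-Cl-BBQ, exposed to compounds from 30 μM to 0.5 nM final in 3-fold steps for 6 days at 37° C. Cell number read on day 7 by CellTiter-Glo luminescence.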

TIPARP GST-(TEV), sequence (Q7Z3E1 441-657): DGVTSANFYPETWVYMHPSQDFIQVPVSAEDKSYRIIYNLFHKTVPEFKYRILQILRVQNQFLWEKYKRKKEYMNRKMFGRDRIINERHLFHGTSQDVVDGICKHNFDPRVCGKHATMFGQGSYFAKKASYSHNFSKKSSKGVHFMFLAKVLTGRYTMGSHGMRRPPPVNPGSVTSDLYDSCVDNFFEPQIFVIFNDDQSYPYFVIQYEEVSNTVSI
PARP1 GST, sequence (P09874 whole entry): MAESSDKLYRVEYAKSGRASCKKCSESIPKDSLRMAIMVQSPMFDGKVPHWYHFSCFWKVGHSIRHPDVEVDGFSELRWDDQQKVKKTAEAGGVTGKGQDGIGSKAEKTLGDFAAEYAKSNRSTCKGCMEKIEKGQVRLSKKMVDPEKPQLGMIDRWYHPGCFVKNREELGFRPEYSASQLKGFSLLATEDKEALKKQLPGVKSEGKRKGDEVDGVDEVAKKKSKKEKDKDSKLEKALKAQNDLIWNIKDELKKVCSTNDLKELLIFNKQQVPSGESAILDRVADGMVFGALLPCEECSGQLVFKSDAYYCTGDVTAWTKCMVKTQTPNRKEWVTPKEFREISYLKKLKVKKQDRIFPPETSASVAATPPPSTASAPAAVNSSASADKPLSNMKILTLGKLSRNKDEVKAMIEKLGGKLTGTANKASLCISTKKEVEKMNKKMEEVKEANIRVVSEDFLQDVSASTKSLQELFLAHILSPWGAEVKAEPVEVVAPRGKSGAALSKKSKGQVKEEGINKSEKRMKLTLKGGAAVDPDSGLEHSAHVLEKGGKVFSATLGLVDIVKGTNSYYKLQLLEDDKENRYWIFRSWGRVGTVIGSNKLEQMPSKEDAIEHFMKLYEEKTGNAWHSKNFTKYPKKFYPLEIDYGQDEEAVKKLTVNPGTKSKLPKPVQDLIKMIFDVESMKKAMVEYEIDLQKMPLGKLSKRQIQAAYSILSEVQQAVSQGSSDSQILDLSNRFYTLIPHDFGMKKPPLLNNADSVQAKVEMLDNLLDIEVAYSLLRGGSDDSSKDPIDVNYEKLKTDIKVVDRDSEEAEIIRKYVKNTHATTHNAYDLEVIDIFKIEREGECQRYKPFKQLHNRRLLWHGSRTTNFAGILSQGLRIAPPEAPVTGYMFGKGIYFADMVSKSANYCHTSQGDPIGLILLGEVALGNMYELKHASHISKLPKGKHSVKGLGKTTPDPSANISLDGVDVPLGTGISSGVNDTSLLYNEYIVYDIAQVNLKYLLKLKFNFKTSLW

| SMILES | EC50 (DLD-1 BRCA2 (−/−) cells) [µM] | IC50 (TIPARP GST-(TEV)) [µM] | PARP1/TIPARP IC50 Ratio (TIPARP GST-(TEV)) | IC50 (PARP1 GST) [µM] | EC50 (DLD-1 parent cells) [µM] | EC50 (NCI-H1373 cells) [µM] |
| --- | --- | --- | --- | --- | --- | --- |
| C[C@@H]1CN(c2ncc(C(F)(F)F)cn2)CCN1C(=O)[C@H]1C[C@H](c2c[nH]c(=O)c(C(F)(F)F)c2)C1 [Example 25, 5-[(1R,3r)-3-{(2R)-2-methyl-4-[5-(trifluoromethyl)pyrimidin-2-yl]piperazine-1-carbonyl}cyclobutyl]-3-(trifluoromethyl)pyridin-2(1H)-one] | > 30 | 2 | 1.02 | 2.03 | > 30 | 10.2 |
| O=c1[nH]cc([C@H]2C[C@H](C(=O)N3CCN(c4ncc(C(F)(F)F)cn4)CC3)C2)cc1C(F)(F)F [Example 26, 3-(trifluoromethyl)-5-[(1r,3r)-3-{4-[5-(trifluoromethyl)pyrimidin-2-yl]piperazine-1-carbonyl}cyclobutyl]pyridin-2(1H)-one] | > 30 | 1.62 | 0.790 | 1.28 | > 30 | 9.1 |
| CC(C)(O)c1cnc(N2CCN(C(=O)[C@H]3C[C@@H](Cc4c[nH]c(=O)c(C(F)(F)F)c4)C3)CC2)nc1 [Example 27, 5-{[(1s,3s)-3-{4-[5-(2-hydroxypropan-2-yl)pyrimidin-2-yl]piperazine-1-carbonyl}cyclobutyl]methyl}-3-(trifluoromethyl)pyridin-2(1H)-one] | 0.894 | 0.00234 | 98.7 | 0.231 | > 30 | 0.0387 |
| CC(C)(O)c1cnc(N2CCN(C(=O)[C@H]3C[C@@H](c4c[nH]c(=O)c(C(F)(F)F)c4)C3)CC2)nc1 [Example 28, 5-[(1s,3s)-3-{4-[5-(2-hydroxypropan-2-yl)pyrimidin-2-yl]piperazine-1-carbonyl}cyclobutyl]-3-(trifluoromethyl)pyridin-2(1H)-one] | 5.45 | 0.00569 | 89.1 | 0.507 | > 30 | 0.174 |
| O=c1[nH]cc(C[C@H]2C[C@@H](C(=O)N3CCN(c4ncc(C(F)(F)F)cn4)CC3)C2)cc1C(F)(F)F [Example 29, 3-(trifluoromethyl)-5-{[(1s,3s)-3-{4-[5-(trifluoromethyl)pyrimidin-2-yl]piperazine-1-carbonyl}cyclobutyl]methyl}pyridin-2(1H)-one] | 0.23 | 0.00175 | 150 | 0.263 | 5.96 | 0.0182 |
